Key:
[1] = molecular target: T1, Cytoplasmic tyrosine-protein kinase BMX (Homo sapiens) (UniProt P51813); assay: Selectivity interaction (KinomeScan (DiscoverX)) EUB0000092b BMX; settings: at 10 µM
T1 sequence (whole entry): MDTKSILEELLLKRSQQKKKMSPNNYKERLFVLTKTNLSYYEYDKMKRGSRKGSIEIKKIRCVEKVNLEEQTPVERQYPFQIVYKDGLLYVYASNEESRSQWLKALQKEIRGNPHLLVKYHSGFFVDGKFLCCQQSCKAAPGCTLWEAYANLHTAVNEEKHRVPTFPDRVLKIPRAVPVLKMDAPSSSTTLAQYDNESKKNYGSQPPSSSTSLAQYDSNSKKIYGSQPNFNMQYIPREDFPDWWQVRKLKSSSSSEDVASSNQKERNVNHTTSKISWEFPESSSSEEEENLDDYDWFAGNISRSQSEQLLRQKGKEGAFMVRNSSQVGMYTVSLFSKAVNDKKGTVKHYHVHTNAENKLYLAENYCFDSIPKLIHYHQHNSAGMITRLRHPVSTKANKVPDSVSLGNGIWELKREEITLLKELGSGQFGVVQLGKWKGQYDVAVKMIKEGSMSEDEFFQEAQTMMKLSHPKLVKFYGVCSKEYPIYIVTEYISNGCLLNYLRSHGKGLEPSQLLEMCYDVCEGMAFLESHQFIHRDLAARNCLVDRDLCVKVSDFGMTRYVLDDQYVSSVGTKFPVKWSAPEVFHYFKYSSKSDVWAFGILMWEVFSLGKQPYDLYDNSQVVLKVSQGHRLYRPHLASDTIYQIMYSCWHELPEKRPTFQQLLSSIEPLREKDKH

[2] = tested on: Tyrosine-protein kinase ABL1 (Homo sapiens), P00519 [T315I]; assay: Selectivity interaction (KinomeScan (DiscoverX)) EUB0000655a ABL1; settings: at 10 µM
[3] = molecular target: LIM domain kinase 1 (Homo sapiens) (UniProt P53667); assay: Selectivity interaction (ProQinase) EUB0000171b LIMK1
[4] = molecular target: T2, TGF-beta receptor type-1 (Homo sapiens) (UniProt P36897); assay: Selectivity interaction (KinomeScan (DiscoverX)) EUB0000666a TGFBR1; settings: at 10 µM
T2 sequence (whole entry): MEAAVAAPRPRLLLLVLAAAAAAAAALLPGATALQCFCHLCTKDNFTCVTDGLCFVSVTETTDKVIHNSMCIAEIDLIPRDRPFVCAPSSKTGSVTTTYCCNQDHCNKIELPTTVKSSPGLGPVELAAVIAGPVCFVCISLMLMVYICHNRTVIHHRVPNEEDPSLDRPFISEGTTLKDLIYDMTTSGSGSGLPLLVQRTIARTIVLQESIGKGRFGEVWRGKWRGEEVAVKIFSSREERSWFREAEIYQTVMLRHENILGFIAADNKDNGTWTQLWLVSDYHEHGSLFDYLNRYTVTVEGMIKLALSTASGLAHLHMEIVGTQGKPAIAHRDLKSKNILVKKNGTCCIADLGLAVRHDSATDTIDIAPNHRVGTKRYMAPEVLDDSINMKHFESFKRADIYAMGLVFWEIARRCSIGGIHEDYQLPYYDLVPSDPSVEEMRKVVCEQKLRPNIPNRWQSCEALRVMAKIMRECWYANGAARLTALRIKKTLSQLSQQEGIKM

[5] = molecular target: BMP-2-inducible protein kinase (Homo sapiens) (UniProt Q9NSY1); settings: at 10 µM
[6] = molecular target: T3, Myosin light chain kinase family member 4 (Homo sapiens) (UniProt Q86YV6); assay: Selectivity interaction (KinomeScan (DiscoverX)) EUB0000607a MYLK4; settings: at 10 µM
T3 sequence (whole entry): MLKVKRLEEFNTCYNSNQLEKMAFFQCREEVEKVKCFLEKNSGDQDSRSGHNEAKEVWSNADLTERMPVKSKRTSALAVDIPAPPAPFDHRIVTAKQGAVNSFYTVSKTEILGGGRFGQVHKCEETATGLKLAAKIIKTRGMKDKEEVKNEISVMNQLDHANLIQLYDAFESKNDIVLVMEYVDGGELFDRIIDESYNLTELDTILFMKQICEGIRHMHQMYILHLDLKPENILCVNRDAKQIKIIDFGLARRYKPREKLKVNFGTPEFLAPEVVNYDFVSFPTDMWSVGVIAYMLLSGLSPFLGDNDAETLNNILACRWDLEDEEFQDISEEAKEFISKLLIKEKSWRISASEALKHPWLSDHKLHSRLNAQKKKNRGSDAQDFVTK

[7] = molecular target: Myosin light chain kinase, smooth muscle (Homo sapiens, UniProt Q15746); assay: Selectivity interaction (Kinase panel (literature)) EUB0001199aCl MYLK; settings: at 1 µM
[8] = molecular target: Bone morphogenetic protein receptor type-1A (Homo sapiens, UniProt P36894); assay: Selectivity interaction (KinomeScan (DiscoverX)) EUB0000618a BMPR1A; settings: at 10 µM
[9] = molecular target: TRAF2 and NCK-interacting protein kinase (Homo sapiens) (UniProt Q9UKE5); assay: Selectivity interaction (KinomeScan (DiscoverX)) EUB0000618a TNIK; settings: at 10 µM
[10] = molecular target: T4, Inhibitor of nuclear factor kappa-B kinase subunit alpha (Homo sapiens) (UniProt O15111); assay: Selectivity interaction (Ambit KINOMEscan and KiNATiv profiling in Jurkat cells) EUB0000090b CHUK; format: cell-based; settings: at 1 µM
T4 sequence (whole entry): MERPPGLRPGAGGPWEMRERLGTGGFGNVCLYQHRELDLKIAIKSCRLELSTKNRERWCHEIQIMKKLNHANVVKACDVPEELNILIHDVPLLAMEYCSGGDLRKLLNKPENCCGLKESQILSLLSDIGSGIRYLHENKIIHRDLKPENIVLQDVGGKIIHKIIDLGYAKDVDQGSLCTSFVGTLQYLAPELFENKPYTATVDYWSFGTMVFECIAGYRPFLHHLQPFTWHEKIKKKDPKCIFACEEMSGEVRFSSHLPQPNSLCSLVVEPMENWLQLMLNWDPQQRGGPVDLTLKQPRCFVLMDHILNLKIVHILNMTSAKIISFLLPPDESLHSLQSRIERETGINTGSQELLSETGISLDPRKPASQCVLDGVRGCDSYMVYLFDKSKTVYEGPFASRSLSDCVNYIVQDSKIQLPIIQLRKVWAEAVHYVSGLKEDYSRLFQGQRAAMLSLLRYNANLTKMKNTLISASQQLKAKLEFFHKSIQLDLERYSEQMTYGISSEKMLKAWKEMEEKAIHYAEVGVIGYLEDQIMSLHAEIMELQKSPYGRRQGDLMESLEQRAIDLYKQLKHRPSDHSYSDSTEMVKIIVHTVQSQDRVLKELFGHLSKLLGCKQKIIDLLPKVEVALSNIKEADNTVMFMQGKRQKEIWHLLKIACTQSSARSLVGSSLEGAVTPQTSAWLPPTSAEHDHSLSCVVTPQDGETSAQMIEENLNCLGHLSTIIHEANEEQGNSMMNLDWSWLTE

[11] = molecular target: Casein kinase I isoform delta (Homo sapiens, UniProt P48730); assay: Selectivity interaction (KinomeScan (DiscoverX)) EUB0001619a CSNK1D; settings: at 1 µM
Sequence of Casein kinase I isoform delta (P48730 whole entry, looked up, canonical isoform): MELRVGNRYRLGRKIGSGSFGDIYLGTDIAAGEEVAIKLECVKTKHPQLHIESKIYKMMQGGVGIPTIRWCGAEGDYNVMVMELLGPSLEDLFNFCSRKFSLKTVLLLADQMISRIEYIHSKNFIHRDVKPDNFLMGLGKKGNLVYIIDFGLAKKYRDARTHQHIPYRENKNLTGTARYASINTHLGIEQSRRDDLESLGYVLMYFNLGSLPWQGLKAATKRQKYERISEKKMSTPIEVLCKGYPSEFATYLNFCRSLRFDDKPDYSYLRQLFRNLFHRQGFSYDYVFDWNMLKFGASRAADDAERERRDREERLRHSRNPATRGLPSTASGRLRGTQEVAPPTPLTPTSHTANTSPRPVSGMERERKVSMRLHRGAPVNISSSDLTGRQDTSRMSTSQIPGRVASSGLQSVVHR

Sequence of LIM domain kinase 1 (Homo sapiens) (P53667 whole entry, looked up, the tested form may be a part): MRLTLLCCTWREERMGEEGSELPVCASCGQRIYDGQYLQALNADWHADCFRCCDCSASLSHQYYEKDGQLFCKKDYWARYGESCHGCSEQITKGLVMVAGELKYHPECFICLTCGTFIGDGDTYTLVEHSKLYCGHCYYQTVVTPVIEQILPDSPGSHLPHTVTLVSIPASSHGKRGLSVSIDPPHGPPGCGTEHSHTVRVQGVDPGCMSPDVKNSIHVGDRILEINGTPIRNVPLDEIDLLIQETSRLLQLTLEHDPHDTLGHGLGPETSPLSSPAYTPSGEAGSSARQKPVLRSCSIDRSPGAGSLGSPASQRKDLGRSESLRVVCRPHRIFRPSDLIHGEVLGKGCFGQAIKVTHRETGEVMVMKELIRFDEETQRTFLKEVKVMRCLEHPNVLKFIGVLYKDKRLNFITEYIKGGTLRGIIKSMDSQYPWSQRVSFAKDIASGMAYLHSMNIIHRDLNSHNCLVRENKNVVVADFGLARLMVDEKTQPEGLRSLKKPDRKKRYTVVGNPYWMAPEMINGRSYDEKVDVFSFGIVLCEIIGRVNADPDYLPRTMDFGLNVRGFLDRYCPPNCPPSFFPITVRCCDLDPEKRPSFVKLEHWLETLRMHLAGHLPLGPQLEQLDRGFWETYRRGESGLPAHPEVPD
Sequence of Bone morphogenetic protein receptor type-1A (P36894 whole entry): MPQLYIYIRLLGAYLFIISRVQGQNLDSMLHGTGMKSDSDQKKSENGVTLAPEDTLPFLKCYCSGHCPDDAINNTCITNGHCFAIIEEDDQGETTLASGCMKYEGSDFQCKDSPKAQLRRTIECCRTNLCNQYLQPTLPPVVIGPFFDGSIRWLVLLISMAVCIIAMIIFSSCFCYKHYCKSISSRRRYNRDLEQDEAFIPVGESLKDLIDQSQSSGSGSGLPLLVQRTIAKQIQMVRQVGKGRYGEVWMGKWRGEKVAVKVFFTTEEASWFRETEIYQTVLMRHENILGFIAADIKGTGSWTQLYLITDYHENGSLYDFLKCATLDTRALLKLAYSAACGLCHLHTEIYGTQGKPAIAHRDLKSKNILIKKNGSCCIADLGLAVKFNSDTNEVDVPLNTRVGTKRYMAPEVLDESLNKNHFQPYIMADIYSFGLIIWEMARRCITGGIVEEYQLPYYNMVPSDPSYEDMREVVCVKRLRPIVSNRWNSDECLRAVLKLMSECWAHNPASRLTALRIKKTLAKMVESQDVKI
Sequence of TRAF2 and NCK-interacting protein kinase (Homo sapiens) (Q9UKE5 whole entry, looked up): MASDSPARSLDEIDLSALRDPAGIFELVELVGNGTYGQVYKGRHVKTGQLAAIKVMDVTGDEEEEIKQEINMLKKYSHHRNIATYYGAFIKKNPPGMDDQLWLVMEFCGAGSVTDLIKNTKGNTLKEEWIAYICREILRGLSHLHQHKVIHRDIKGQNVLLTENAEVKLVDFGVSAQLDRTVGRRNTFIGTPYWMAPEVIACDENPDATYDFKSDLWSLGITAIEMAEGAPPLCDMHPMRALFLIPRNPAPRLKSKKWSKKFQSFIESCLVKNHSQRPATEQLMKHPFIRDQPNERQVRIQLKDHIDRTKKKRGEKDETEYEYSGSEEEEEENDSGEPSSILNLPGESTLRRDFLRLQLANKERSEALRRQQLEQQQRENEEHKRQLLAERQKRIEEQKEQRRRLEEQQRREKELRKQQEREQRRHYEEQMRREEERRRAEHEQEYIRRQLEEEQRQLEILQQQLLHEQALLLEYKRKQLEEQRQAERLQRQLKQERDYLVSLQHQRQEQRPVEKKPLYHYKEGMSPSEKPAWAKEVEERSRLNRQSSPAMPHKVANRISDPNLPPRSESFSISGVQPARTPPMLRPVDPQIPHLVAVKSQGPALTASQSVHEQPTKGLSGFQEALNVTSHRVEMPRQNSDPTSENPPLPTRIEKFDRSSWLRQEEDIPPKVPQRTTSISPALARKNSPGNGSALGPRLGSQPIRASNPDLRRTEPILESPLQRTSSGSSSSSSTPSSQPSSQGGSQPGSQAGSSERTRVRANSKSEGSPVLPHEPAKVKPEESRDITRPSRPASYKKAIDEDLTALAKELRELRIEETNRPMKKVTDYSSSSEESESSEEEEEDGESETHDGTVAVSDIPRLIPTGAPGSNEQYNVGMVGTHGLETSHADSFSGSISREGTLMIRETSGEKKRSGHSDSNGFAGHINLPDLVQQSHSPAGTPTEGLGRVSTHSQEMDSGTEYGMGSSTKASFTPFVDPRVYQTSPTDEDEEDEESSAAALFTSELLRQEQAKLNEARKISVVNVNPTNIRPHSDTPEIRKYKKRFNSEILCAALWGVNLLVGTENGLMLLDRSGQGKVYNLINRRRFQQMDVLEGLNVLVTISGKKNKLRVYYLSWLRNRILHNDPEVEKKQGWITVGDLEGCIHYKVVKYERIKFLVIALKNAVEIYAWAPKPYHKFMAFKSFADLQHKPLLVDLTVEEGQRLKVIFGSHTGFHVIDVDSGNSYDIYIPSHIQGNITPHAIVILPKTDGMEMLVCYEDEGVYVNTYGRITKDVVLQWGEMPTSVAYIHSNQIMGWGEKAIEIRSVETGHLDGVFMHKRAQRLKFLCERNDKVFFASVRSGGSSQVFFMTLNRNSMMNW
Sequence of Myosin light chain kinase, smooth muscle (Q15746 whole entry): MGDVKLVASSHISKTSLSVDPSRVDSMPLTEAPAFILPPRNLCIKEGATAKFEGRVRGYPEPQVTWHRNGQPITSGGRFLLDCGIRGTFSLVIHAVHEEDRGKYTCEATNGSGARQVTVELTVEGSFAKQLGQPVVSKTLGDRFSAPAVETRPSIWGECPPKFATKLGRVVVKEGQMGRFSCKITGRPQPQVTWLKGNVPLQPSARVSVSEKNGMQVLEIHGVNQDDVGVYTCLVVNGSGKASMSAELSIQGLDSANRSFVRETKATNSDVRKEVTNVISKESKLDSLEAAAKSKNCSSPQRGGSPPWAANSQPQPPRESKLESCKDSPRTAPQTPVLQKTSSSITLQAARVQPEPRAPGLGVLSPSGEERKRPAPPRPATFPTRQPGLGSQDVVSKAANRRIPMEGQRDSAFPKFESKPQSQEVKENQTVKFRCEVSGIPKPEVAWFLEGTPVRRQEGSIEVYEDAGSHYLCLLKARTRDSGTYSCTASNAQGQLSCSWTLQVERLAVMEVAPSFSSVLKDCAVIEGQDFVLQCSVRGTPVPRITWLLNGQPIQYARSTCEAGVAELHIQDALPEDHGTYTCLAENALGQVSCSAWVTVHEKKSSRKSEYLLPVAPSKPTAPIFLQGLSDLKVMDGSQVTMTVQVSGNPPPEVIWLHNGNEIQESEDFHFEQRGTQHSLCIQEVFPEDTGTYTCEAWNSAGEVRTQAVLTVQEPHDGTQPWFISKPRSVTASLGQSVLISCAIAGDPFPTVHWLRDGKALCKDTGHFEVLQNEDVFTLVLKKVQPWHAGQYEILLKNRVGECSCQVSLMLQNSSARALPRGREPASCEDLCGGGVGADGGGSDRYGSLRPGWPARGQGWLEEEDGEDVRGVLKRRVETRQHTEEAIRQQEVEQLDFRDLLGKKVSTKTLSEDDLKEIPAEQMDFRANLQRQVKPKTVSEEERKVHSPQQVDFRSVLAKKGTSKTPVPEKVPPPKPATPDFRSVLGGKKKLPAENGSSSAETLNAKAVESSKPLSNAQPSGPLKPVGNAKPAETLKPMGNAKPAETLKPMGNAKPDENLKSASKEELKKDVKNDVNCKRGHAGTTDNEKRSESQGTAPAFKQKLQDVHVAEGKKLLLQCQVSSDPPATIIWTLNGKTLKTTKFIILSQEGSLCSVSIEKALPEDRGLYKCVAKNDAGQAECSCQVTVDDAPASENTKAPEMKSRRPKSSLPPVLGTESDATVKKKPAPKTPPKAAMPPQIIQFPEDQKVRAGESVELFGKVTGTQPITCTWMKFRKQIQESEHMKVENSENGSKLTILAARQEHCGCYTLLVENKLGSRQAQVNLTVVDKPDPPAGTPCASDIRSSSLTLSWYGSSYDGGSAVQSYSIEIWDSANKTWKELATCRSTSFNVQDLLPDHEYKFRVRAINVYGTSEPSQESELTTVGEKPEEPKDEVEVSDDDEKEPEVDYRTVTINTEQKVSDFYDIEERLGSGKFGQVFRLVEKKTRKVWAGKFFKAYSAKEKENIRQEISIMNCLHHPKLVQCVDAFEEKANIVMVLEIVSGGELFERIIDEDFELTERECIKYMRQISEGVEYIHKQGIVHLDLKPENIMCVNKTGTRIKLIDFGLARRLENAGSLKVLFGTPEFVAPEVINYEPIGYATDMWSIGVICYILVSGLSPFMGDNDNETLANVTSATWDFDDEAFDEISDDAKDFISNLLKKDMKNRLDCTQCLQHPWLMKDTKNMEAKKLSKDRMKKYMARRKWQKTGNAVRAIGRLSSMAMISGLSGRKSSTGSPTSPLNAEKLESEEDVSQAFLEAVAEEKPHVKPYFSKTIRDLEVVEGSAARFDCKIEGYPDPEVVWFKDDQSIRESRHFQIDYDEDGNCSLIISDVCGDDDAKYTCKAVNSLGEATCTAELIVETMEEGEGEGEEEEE

In the case of `CCC(=O)N1CCN(c2ccc(-n3c(=O)ccc4cnc5ccc(-c6cnc7ccccc7c6)cc5c43)cc2C(F)(F)F)CC1`, the % of control [1] was 59%.
For `CN(C)CCOc1ccc(-c2nc(-c3ccncc3)c(-c3ccc4c(c3)CC/C4=N\O)[nH]2)cc1`, the % of control [2] was 5.4%.
`C=CC(=O)Nc1cccc(C(=O)Nc2ccc(Nc3cc(-c4[nH]c(SC)nc4C)ccn3)cc2)c1` was tested, and the % of control ([3]; at 1 µM) was 72% and the % of control ([3]; at 5 µM) was 46%.
In the case of `O=C(NOC[C@H](O)CO)c1ccc(F)c(F)c1Nc1ccc(I)cc1F`, the % of control [4] was 100%.
`Cc1cc([C@@H](C)Nc2ccccc2C(=O)O)c2nc(N3CCOCC3)cc(=O)n2c1` [AZD-6482] was tested, and the % of control [5] was 94%.
`CNC(=O)Nc1ccc(-c2nc(N3CC4CCC(C3)O4)c3cnn(C4CCC5(CC4)OCCO5)c3n2)cc1` was tested, and the % of control [6] was 100%.
Molecule `CN1Cc2nccc(-c3cn(C)nc3-c3ccc(F)cc3)c2C1=O` has a % of inhibition [7] of 4%.
In the case of `O[C@H]1CC[C@H](Nc2ncc3nc(Nc4c(F)cc(F)cc4F)n([C@H]4CCOC4)c3n2)CC1`, the % of control [8] was 100% and the % of control [9] was 83%.
`CN(C)C/C=C/C(=O)Nc1ccc(C(=O)N2CCCC(Nc3ncc(Cl)c(-c4c[nH]c5ccccc45)n3)C2)cc1` (configuration not stated) gave a % of control [10] of 100%.
`N#Cc1cccc(-c2c[nH]c3ncnc(N4CCOCC4)c23)c1` was tested, and the % of control [11] was 100%.

Reference: ChEMBL document CHEMBL5465560, “Selectivity Literature for EUbOPEN Chemogenomic Library” (2024)
